As a reminder, the % inhibition is the drop in the measured response relative to a control, in per cent.

For experiment [1], the system named is HS-PSS. Nature of the experiment: % inhibition of CellTiter-Glo viability at highest tested concentration (72 h), relative to DMSO and benzethonium chloride controls; higher = more inhibition. In a few lines:
(§1)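 Viability was scored by CellTiter-Glo ATP luminescence, scaled from vehicle to positive-control wells, with duplicates averaged where present. The cells, MPNST lines and primary human Schwann cells at 750–1000 per well, sat 72 h at 37 °C, 5% CO2, in 384-well plates preprinted with each compound at five concentrations in 10-fold steps. Four-parameter logistic fits were run on the data. These fits give drug sensitivity score and relative IC50 censored at the top concentration, and percent inhibition is reported at the top concentration.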
For orientation: In ATP-based viability assays light output follows the ATP content of the culture.

Experiment [2] concerns YST-1. The experiment is described as above. In a few lines: as §1
The test system of experiment [3] is HS-Sch-2. Described as above. In a few lines: as §1
Experiment [4] concerns HS-PSS. Nature of the experiment: drug sensitivity score (DSS, CellTox-Green cytotoxicity, 72 h) (DSS (dimensionless)); higher = more cytotoxic; extreme values may be limits of the assay. In a few lines:
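MPNST cell lines and primary human Schwann cells were incubated 72 h at 37 °C in 384-well plates holding five 10-fold compound dilutions. CellTox-Green was added before seeding at a final 1:1000 dilution and reported fluorescence from DNA released by disrupted cells. Signals were scaled to vehicle and positive-control wells, and cultures failing plate quality control were dropped. Drug sensitivity score and relative IC50 come from four-parameter logistic fits, with IC50 censored at the top concentration.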

For experiment [5], the system named is HS-PSS. Nature of the experiment: drug sensitivity score (DSS, CellTiter-Glo viability, 72 h) (DSS (dimensionless)); higher = more sensitive; extreme values may be limits of the assay. In a few lines: as §1
The test system of experiment [6] is YST-1. The experiment is described as above. In a few lines:
as §1

Experiment [7] has as its system HS-Sch-2. The description is as above. In a few lines: as §1

With `Cc1c(F)cc(C(=O)NC2CC2)cc1-c1ccc(C(=O)NCC(C)(C)C)cn1` [Losmapimod] (max concentration tested 10000 nM), the “% inhibition” value in experiment [1] was determined as 8.01%; in experiment [2], 32.3%; in experiment [3] it was 1.17%. Also, the drug sensitivity score in experiment [4] amounted to 0; in experiment [5], 0; in experiment [6], 10.1; in experiment [7] it was 0.

As to `Cn1nccc1Nc1nccc(-c2ccn([C@H](CO)c3ccc(Cl)c(F)c3)c(=O)c2)n1` [GDC-0994] (max concentration tested 10000 nM), the “% inhibition” value was 8.18% in experiment [1], 40% in experiment [2] and 92.6% in experiment [3]. The drug sensitivity score in experiment [4] was found to be 0; in experiment [5], 0; in experiment [6], 1.37; in experiment [7], 5.84.

For the compound `CNC(=O)c1c(F)cccc1Nc1nc(Nc2cc3c(cc2OC)CCN3C(=O)CN(C)C)nc2[nH]ccc12` (max concentration tested 2500 nM), the “% inhibition” value in experiment [1] was determined as 59.1%; in experiment [2], 66.3%; in experiment [3] it was 11.8%. Moreover, the drug sensitivity score in experiment [4] came to 1.53; in experiment [5], 13.9; in experiment [6], 11.8; in experiment [7], 0.22.

In the case of `S=C(NCc1ccc2c(c1)OCO2)N1CCN(c2ncnc3c2oc2ccccc23)CC1` [Amuvatinib] (max concentration tested 10000 nM), the figures for the “% inhibition” value in experiment [1], in experiment [2] and in experiment [3] were 83.6%, 31.3% and 86.5%, respectively. For the same compound, the drug sensitivity score in experiment [4] came to 0; in experiment [5], 9.62; in experiment [6], 1.22; in experiment [7], 6.77.

Take `Cc1cc(-c2nc(-c3ccc(OC(F)(F)F)cc3)no2)nn1Cc1ccnc(N2CCN(C3CC3)CC2)c1` [BAY 87-2243] (max concentration tested 1000 nM): the “% inhibition” value was 74.5% in experiment [1], 15.5% in experiment [2] and 65.9% in experiment [3]. Also, the drug sensitivity score was found to be 0 in experiment [4], 31.7 in experiment [5], 2.18 in experiment [6] and 26.4 in experiment [7].

For `O=C(NC[C@H](O)CN1CCc2ccccc2C1)c1cc(NC2COC2)ncn1` (max concentration tested 10000 nM), the figures for the “% inhibition” value in experiment [1], in experiment [2] and in experiment [3] were 17.6%, 14.1% and 10.7%, respectively. In addition, the drug sensitivity score in experiment [4] came to 0; in experiment [5] it was 0.24; in experiment [6], 0.06; in experiment [7] it was 0.29.

`Nc1ncnc2c1c(-c1cccc(OCc3ccccc3)c1)cn2[C@H]1C[C@@H](CN2CCC2)C1` [NVP-AEW541] (max concentration tested 10000 nM): the “% inhibition” value in experiment [1] was found to be 100%; in experiment [2], 98.3%; in experiment [3], 99.8%. Further, the drug sensitivity score in experiment [4] worked out at 7.08; in experiment [5], 5.83; in experiment [6], 13; in experiment [7], 8.08.

For the compound `NC[C@@](O)(c1ccc(Cl)cc1)c1ccc(-c2cn[nH]c2)cc1` (max concentration tested 10000 nM), the “% inhibition” value stood at 97.9% in experiment [1], 73.8% in experiment [2] and 91.8% in experiment [3]. Besides, the drug sensitivity score in experiment [4] was 6.26; in experiment [5], 7.75; in experiment [6], 4.33; in experiment [7], 8.76.

In the case of `N#Cc1c(Oc2ccc(F)c(NC(=O)Cc3cccc(C(F)(F)F)c3)c2)ccc2nc(NC(=O)C3CC3)sc12` [TAK-632] (max concentration tested 10000 nM), the “% inhibition” value in experiment [1] is 37.5%; in experiment [2], 10.2%; in experiment [3], 32.1%. The drug sensitivity score was 0 in experiment [4], 1.38 in experiment [5], 0 in experiment [6] and 1.14 in experiment [7].

On to `CCCCc1nc2cc(/C=C/C(=O)NO)ccc2n1CCN(CC)CC` [Pracinostat] (max concentration tested 10000 nM), for which the figures for the “% inhibition” value in experiment [1], in experiment [2] and in experiment [3] were 94%, 100% and 101%, respectively. Besides, the drug sensitivity score came to 6.63 in experiment [4], 12.4 in experiment [5], 22 in experiment [6] and 15.9 in experiment [7].

Regarding `CN1CCC(CNc2ccc3ncc(-c4cccc(OC(F)(F)F)c4)n3n2)CC1` [SGI-1776] (max concentration tested 10000 nM), the “% inhibition” value in experiment [1], in experiment [2] and in experiment [3] was 101% in each case. Further, the drug sensitivity score in experiment [4] is 6.8; in experiment [5], 6.88; in experiment [6], 9; in experiment [7], 7.09.

`CC(C)Oc1ccc(C(=O)N[C@H](CNC(=O)CN(C)C)Cc2ccc(-c3cn4cccc([C@H](C)O)c4n3)cc2)cc1Cl` (max concentration tested 10000 nM): the “% inhibition” value in experiment [1] was determined as 66.7%; in experiment [2], 62%; in experiment [3] it was 95.2%. In addition, the drug sensitivity score in experiment [4] worked out at 1.48; in experiment [5] it was 8.56; in experiment [6], 19.5; in experiment [7] it was 24.1.

For `CCn1nnc2c(N3CCOCC3)nc(-c3ccc(NC(=O)Nc4ccc(C(=O)N5CCN(C)CC5)cc4)cc3)nc21` [PKI-402] (max concentration tested 2500 nM), the “% inhibition” value in experiment [1] came out at 75.8%; in experiment [2] it was 90.9%; in experiment [3], 75.5%. The drug sensitivity score in experiment [4] was found to be 0.89; in experiment [5] it was 15.3; in experiment [6], 17.3; in experiment [7], 12.4.

`CC[C@H](C)C(=O)O[C@H]1C[C@@H](C)C=C2C=C[C@H](C)[C@H](CC[C@@H]3C[C@@H](O)CC(=O)O3)[C@H]21` [Lovastatin] (max concentration tested 10000 nM): the “% inhibition” value in experiment [1] was -5.9%; in experiment [2], 0.71%; in experiment [3], -6.45%. The drug sensitivity score in experiment [4], in experiment [5], in experiment [6] and in experiment [7] was 0 each time.
